These results are taken from US8058314B2, “Conductance of improperly folded proteins through the secretory pathway and related methods for treating disease” (Yale University, priority 1999, dated 2011).

For one data set, the system named is CFPAC-1 cells. Put plainly: Short circuit current (Ussing chamber) of CFPAC-1 monolayers after cAMP stimulation. Type of data set: cell-based, human. The note with it: 1 uM thapsigargin 1.5 hours, 2 hours recovery, 10 uM forskolin and 100 uM IBMX, n=12.
A further data set concerns ΔF508 CFTR. Nature of the data set: Immunofluorescence localization of CFTR in CFBE290− airway epithelial cells. The data set is classed as cell-based, human. Here is the method:
CFPAC and CFBE290^− epithelial cells were grown to confluence on 0.45 micron Transwell filter inserts (Corning Costar, Cambridge, Mass.) under the same conditions described for the short circuit current measurements. Prior to immunofluorescence analysis, filter grown cell monolayers were treated for 90 min with 1 μM thapsigargin at 37° C., present in both the apical and basolateral media compartments. The media was then changed to standard Iscove's growth medium or DMEM without thapsigargin, and cells were incubated for 2 or 4 hours at 37° C. Control cells underwent the same media changes but were not subjected to thapsigargin treatment.
Following the second incubation, the filter grown monolayers were washed once with phosphate buffered saline supplemented with calcium and magnesium (150 mM NaCl, 10 mM NaPi, pH 7.4, 1 mM MgCl2, 0.1 mM CaCl2), after which they were fixed for 10 minutes in −20° C. 100% methanol. Immunofluorescence labeling was performed using the well characterized 169 and 181 antibodies (gift of W. Guggino, Johns Hopkins University) directed against the R domain and the prenucleotide binding fold of the CFTR protein, respectively (Crawford et al., Proc. Nat. Acad. Sci. 88:9262-9266 (1991)) and a monoclonal antibody directed against the α-subunit of the Na,K-ATPase (Gottardi and Caplan, J. Cell Biol. 121:283-293 (1993)).
Incubations with primary and rhodamine-conjugated secondary antibodies were performed as previously described (Gottardi and Caplan, Id.). Labeled cells were examined using a Zeiss LSM 410 laser scanning confocal microscope. All images are the product of 8-fold line averaging. Contrast and brightness settings were chosen so that all pixels were in the linear range. […]
To ensure that the dose of thapsigargin received by the mice was sufficient to rescue ΔF508-CFTR in airway epithelial cells, we examined the effect of nebulized thapsigargin on CFBE290^− cells. […] Filter-grown CFBE290^− cells were exposed to 1 μM nebulized thapsigargin for 3 hours and the distribution of ΔF508-CFTR was evaluated by immunofluorescence.

Data set [1] is classed as in vivo, mice. As to the method: A nebulization chamber was constructed using an 8 quart plastic container with a lid that creates an air tight seal. A ‘T piece nebulizer device’ (Hudson RCI T-up Draft Nebumist Nebulizer) was inserted into the container via an opening located on the side of the chamber. The nebulization device was filled with 5 mls of 1 μM thapsigargin dissolved in physiologic saline solution. The gas source (high pressure air) was attached to the set up to create a flow rate of ≧12 liters per minute. Flow was adjusted to maintain a fine visible mist throughout the chamber. Numerous small ventilation holes were placed at the top of the chamber to ensure the escape of carbon dioxide. The nebulization chamber was kept in a fume hood during the experiments to allow for dispersion of any escaped mist.
Mice or cells were placed into the chamber prior to the onset of nebulization. Mice were observed continuously during the nebulization treatments and observations were documented every 15-30 minutes. Lungs were prepared for histologic analysis according to methods described previously (Courtois-Coutry et al., Cell 90:501-510 (1997)).
To examine this issue, six mice were exposed for 3 to 4 hours per day for 14 days to a nebulized solution of 1 μM thapsigargin in normal saline. […] At the end of the 2 week trial, the animals were sacrificed and 4 were processed for histopathologic examination of the lungs.
Wild type and CF mice were exposed to a humidified atmosphere (produced as described in Example 4) containing 1 μM thapsigargin for 3 hours/day for 7-14 days. […] The night before the NPD procedure was performed, mice were taken off Colyte and given water or alimentum (liquid formula). Wet food was also withheld. These steps were taken to decrease the risk of dehydration and/or intestinal obstruction that occur with sedation and dehydration.

The test system of data set [2] is α1-antitrypsin, null (Hong Kong). Put plainly: Secretion of α1-antitrypsin null (Hong Kong) from stably transfected mouse hepatoma cells, pulse-chase. The note with it: 1 μM thapsigargin for 3 hours during chase. The data set is classed as cell-based. Here is the method:
Experiment 2 is repeated using a cell line that expresses a retention mutation for cc1-antitrypsin, such as the secretion-incompetent variant, null (Hong Kong), retained in stably transfected mouse hepatoma cells (J. Biol. Chem. 269:7514-7519 (1994)). Changes in the cell phenotype are assessed by assaying cells for secretion of a 1-antitrypsin (detailed description in J. Biol. Chem. 268:2001-2008 (1993)).
Briefly, cell monolayers are pulse labeled with [^35S] methionine for 30 minutes, after which the radiolabeled media is removed and replaced with media containing an excess of unlabeled methionine. During the chase period, one set of monolayers is treated with 1 μM thapsigargin for 3 hours, while another set is incubated for 3 hours in drug free media. Secretion of α1-antitrypsin into the media is assessed by immunoprecipitation followed by electrophoresis and autoradiography.
Results. Cells expressing the secretion-incompetent variant of α1-antitrypsin, null (Hong Kong), are pulse labeled for 30 minutes with [^35S] methionine, after which they were incubated in non-radioactive media for 3 hours in the presence or absence of 1 μM thapsigargin. After this chase incubation, the media is collected and subjected to immunoprecipitation with anti-α1-antitrypsin antibodies. Immunoprecipitates are analyzed by SDS-PAGE followed by autoradiography.

Data set [3] is described as follows: Toxicity test, thapsigargin in drinking water. Type of data set: in vivo, mice. Conditions: drinking water with 1 μM thapsigargin over 3 to 7 days. As to the method: Genetically uniform lab mice were given either normal drinking water (control) or drinking water which contained thapsigargin (1 μM final concentration). The non-control group of mice were given the thapsigargin-treated water over a 3 to 7 day time period.

In another data set the test system is SERCA ATPases. The note with it: cited from earlier work.
Where [4] appears, read: nebulized 1 μM thapsigargin, 14 days, 4 mice examined.

Experimental for CFPAC-1 cells: The cell line is homozygous for expression of ΔF508 CFTR and has the ion transport properties of CF-affected epithelia. CFPAC-1 cells show epithelial morphology and polarization with apical microvilli.
CFPAC cells were grown at 370 in 5% CO2 and maintained in Isocove's modified Dulbucco's medium supplemented with 10% fetal calf serum. Both for measurements of short circuit current and for immunofluorescence experiments, these cells were grown on collagen coated permeable supports (Transwell Snapwell filter cups, Corning Costar, Cambridge, Mass.).
CFPAC-1 or T84 cells were grown on collagen coated permeable supports (Transwell Snapwell filter cups, Corning Costar, Cambridge, Mass.). […]
Ag—AgCl wires were embedded in 3M KCl agar bridges were used as voltage and current electrodes on each side of the monolayer contained in an Ussing chamber system (World Precision Instruments, WPI). Voltage was clamped using an EC-825 voltage clamp amplifier (Warner Instruments) with a digital current and voltage readout. The transepithelial potential difference (Vlc) is continuously recorded. At 5-minute intervals the Vtc is clamped to 0 and the short circuit current (Isc) was determined. […]
After cells were mounted in the Ussing chamber electrical parameters were assessed for 20 to 30 minutes (control period). […] During these maneuvers, electrical parameters were continuously monitored.

Take `C/C=C(/C)C(=O)O[C@H]1C(C)=C2[C@H]([C@@H]1OC(=O)CCCCCCC)[C@@](C)(OC(C)=O)C[C@H](OC(=O)CCC)[C@@]1(O)[C@H]2OC(=O)[C@@]1(C)O` [thapsigargin]: the “increase in short circuit current after cAMP-stimulation cocktail” value with CFPAC-1 cells turned out to be 14.6±6.6%. In addition, in the data set with ΔF508 CFTR (1 μM nebulized thapsigargin for 3 hours, air-liquid interface), the “distribution of ΔF508-CFTR” value was “dramatic redistribution of ΔF508-CFTR to the apical plasmalemma”. Also, the ΔF508-CFTR surface delivery result in the data set on ΔF508 CFTR (agent dissolved in media) is on record as “present to the same extent at the apical surfaces of cells treated with nebulized or dissolved thapsigargin”. Also, the “ill effects during or between treatments” value in data set [1] (nebulized 1 μM thapsigargin, 3 to 4 hours per day for 14 days, six mice) is reported as “no obvious ill effects”. Further, in data set [1] (setting [4]), the “cellular architecture of the lungs” value is “completely normal” and the peribronchiolar lymphocytes result is recorded as “One of the specimens exhibited a moderate peribronchiolar lymphocytic infiltration”. In addition, in data set [1] (nebulized 1 microM thapsigargin or 50 microM curcumin, 3 hours/day for 7-14 days), the morbidity under treatment entry is listed as “without exhibiting any obvious morbidity”. Also, the “radiolabeled α1-antitrypsin in the media” value in data set [2] is recorded as “Radiolabeled α1-antitrypsin protein is present in the media”. In addition, the “deaths, illnesses or side effects” value in data set [3] is given as “no deaths, illnesses or side effects”. Moreover, the “reduction of efficacy as calcium pump inhibitor on loss of the ester groups” value in the data set on SERCA ATPases (Christensen et al.) is “at least 40 fold”. Also, in the data set on SERCA ATPases, the “potency of SERCA inhibition” value is given as “subnanomolar”.
